For experiment [1], the target named is T1, human dopamine D3 receptors (Homo sapiens, UniProt P35462).
T1 construct: expressed in transfected cells; host or cells: CHO
Kind of experiment: Binding affinity test on human dopamine D3 receptors ([3H]spiperone, CHO membranes). The conditions noted are these: for binding affinity (in words): human dopamine D3 receptors. The procedure:
For the test, membrane specimens prepared from Chinese hamster ovary (CHO) cells expressing human dopamine D3 receptors were used. To a 50 mM Tris-HCl buffer (pH 7.4) containing 1.4 mM ascorbic acid, 0.001% BSA, and 150 mM NaCl, [^3H] spiperone (final concentration 0.7 nM), the test sample solution and a membrane specimens were added. The reaction solution was allowed to react at 37° C. for 2 hours, then the reaction solution was filtered with a cell harvester, the filtered filter paper was transferred to a measurement vial, a liquid scintillator was added and the receptor bond radioactivity remaining on the filter paper was determined by a liquid scintillation counter.
(§1) The following formula was used to calculate the binding inhibition rate: […]
(§2) Furthermore, the inhibition constant (Ki) was calculated.

The target in experiment [2] is T1, human dopamine D3 receptors. Kind of experiment: Agonist/antagonist assay, [35S]GTPgammaS binding, human dopamine D3 receptors. Type of experiment: biochemical. The following applies: for agonist activity (in words) / antagonist activity (in words): human dopamine D3 receptors. How it is done: (§3) For the tests, membrane specimens prepared from Chinese hamster ovary (CHO-K1) cells expressing human serotonin 1A receptors, Chinese hamster ovary (CHO) cells expressing human dopamine D2L receptors, Chinese hamster ovary (CHO) cells expressing human dopamine D2S receptors and Chinese hamster ovary (CHO) cells expressing human dopamine D3 receptors were used. In the agonist assays, for the serotonin 1A receptors, [^35S] GTPγS (final concentration 0.1 nM), a GDP solution (final concentration 3 μM), the test sample solution and a membrane specimen were added to a 20 mM Hepes-NaOH buffer (pH 7.4) containing 100 mM NaCl, 3 mM MgCl2 and 10 μg/mL saponin and allowed to react at 25° C. for 30 minutes. Further, for the dopamine (D2L, D2S and D3) receptors, [^35S] GTPγS (i.e., final concentration 0.1 nM), a GDP solution (final concentration 3 μM), the test sample solution and a membrane specimen were added to a 20 mM Hepes-NaOH buffer (pH 7.4) containing 100 mM NaCl, 10 mM MgCl2, 1 mM DTT and 1 mM EDTA and allowed to react at 30° C. for 15 minutes (in the case of D2L receptors) or for 30 minutes (in the cases of D2S and D3 receptors). Further, in the antagonist assays, except for adding to the reaction solutions 10 μM 5-carboxamide tryptamine (5-CT) (in the case of serotonin 1A receptors), 3 μM dopamine (in the cases of D2L and D2S receptors), or 0.1 μM dopamine (in the case of D3 receptors), operations were performed similar to the agonistic tests. After the end of the reaction, the reaction solution was filtered with a cell harvester, the filtered filter paper was transferred to a measurement vial, a liquid scintillator was added, and the radioactivity of the [^35S] GTPγS remaining on the filter paper was determined by a liquid scintillation counter. The human serotonin 1A receptor and human dopamine (D2L, D2S, and D3) receptor agonist/antagonist activities of the test sample were expressed as the rates of increase, when making the increase in [^35S] GTPγS bonds due to 10 μM 5-CT (in the case of serotonin 1A receptors), 3 μM dopamine (in the cases of D2L and D2S receptors), or 0.1 μM dopamine (in the case of D3 receptors) 100%. From the bond increasing rate, a regression formula was used to calculate the 50% reaction concentration (EC50) and 50% inhibition concentration (IC50).
Background: Binding of GTPγS marks nucleotide exchange on a G protein.

Experiment [3] deals with T2, human dopamine D2S receptors (Homo sapiens, UniProt P14416).
T2 construct: expressed in transfected cells; host or cells: CHO
Briefly: Agonist/antagonist assay, [35S]GTPgammaS binding, human dopamine D2S receptors. The following applies: for EC50 / Emax / IC50: Dopamine D2S; for antagonist activity (in words): human dopamine D2S receptors. The format is biochemical. How it is done:
as §3

The target of experiment [4] is T2, human dopamine D2S receptors. Briefly: Binding affinity test on human dopamine D2S receptors ([3H]spiperone, CHO membranes). The following applies: for Ki: Dopamine D2S; for binding affinity (in words): human dopamine D2S receptors. How it is done:
For the test, membrane specimens prepared from Chinese hamster ovary (CHO) cells expressing human dopamine D2S receptors were used. To a 50 mM Tris-HCl (pH 7.4) buffer containing 1.4 mM ascorbic acid, 0.001% BSA, and 150 mM NaCl, [^3H] spiperone (final concentration 0.16 nM), the test sample solution and a membrane specimen were added. The reaction solution was allowed to react at 25° C. for 2 hours, then the reaction solution was filtered with a cell harvester, the filtered filter paper was transferred to a measurement vial, a liquid scintillator was added, and the receptor bond radioactivity remaining on the filter paper was determined with a liquid scintillation counter. The nonspecific bonds were defined as the amount of bonds in the presence of 10 μM haloperidol.
as §1
From the binding inhibition rate, a regression formula was used to calculate the 50% inhibition concentration. Furthermore, the inhibition constant (Ki) was calculated.

Experiment [5] addresses T3, human dopamine D2L receptors (Homo sapiens, UniProt P14416).
T3 construct: expressed in transfected cells; host or cells: CHO
Kind of experiment: Agonist/antagonist assay, [35S]GTPgammaS binding, human dopamine D2L receptors. The format is biochemical. The conditions noted are these: for EC50 / Emax / IC50: Dopamine D2L; for antagonist activity (in words): human dopamine D2L receptors. How it is done:
as §3

Experiment [6] addresses T4, human serotonin 1A receptors (Homo sapiens, UniProt P08908).
T4 construct: expressed in transfected cells; host or cells: CHO-K1
T4 sequence (P08908 1-422): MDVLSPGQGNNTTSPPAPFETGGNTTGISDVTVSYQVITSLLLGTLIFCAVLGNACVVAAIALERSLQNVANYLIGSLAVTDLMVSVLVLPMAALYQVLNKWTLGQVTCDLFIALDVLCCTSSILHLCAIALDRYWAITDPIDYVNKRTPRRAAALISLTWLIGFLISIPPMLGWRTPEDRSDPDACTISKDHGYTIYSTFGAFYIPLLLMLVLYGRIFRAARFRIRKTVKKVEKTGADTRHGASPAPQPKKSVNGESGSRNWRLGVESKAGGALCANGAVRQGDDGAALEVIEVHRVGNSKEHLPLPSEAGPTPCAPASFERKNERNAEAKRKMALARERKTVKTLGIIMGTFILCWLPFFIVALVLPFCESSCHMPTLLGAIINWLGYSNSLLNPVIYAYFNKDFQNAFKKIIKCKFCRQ
Briefly: Binding affinity test on human serotonin 1A receptors ([3H]8-OH-DPAT, CHO-K1 membranes). The conditions noted are these: for Ki: Serotonin 1A; for binding affinity (in words): human serotonin 1A receptors. The procedure: For the test, membrane specimens prepared from Chinese hamster ovary (CHO-K1) cells expressing human serotonin 1A receptors were used. To a 50 mM Tris-HCl buffer (pH 7.4) including 5 mM CaCl2, 0.1% ascorbic acid, and 10 μg/mL saponin, [^3H] […] The reaction solution was allowed to react at 25° C. for 60 minutes, then the reaction solution was filtered with a cell harvester, the filtered filter paper was transferred to a measurement vial, a liquid scintillator was added and the receptor bond radioactivity remaining on the filter paper was determined by a liquid scintillation counter. The nonspecific bonds were defined as the amount of bonds in the presence of 10 μM serotonin.
as §1, §2

[7] abbreviates: 3 μM dopamine = 100%, read-out: Agonist assay Emax.
The mark [8] stands for this setting: with 3 μM dopamine, read-out: Antagonist assay Emax.
The mark [9] stands for this setting: Dopamine D3, 0.1 μM dopamine = 100%, read-out: Agonist assay Emax.
Setting [10] is: Dopamine D3, read-out: Agonist assay EC50.
Setting [11] is: Dopamine D3, with 0.1 μM dopamine, read-out: Antagonist assay Emax.
The mark [12] stands for this setting: Dopamine D3, with 0.1 μM dopamine, read-out: Antagonist assay IC50.

“Also recorded” adds a separate entry of the source. Structures can show the parent of a compound that is named as a salt. Where two headings read alike, the source gives them in different places.

T3 sequence (P14416 whole entry): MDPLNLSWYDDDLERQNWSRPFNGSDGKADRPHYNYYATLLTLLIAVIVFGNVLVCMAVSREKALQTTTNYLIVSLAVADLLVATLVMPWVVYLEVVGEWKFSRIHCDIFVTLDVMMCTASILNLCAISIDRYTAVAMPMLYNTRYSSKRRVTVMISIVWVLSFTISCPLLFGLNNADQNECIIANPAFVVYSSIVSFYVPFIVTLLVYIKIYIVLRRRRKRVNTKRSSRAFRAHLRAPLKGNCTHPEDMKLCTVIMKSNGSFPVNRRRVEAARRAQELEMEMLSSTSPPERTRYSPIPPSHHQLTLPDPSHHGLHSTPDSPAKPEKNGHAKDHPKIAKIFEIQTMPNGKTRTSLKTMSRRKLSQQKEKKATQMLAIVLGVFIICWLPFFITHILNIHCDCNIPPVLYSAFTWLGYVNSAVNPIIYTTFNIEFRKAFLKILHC
T2 sequence (P14416 1-414 isoform P14416-2): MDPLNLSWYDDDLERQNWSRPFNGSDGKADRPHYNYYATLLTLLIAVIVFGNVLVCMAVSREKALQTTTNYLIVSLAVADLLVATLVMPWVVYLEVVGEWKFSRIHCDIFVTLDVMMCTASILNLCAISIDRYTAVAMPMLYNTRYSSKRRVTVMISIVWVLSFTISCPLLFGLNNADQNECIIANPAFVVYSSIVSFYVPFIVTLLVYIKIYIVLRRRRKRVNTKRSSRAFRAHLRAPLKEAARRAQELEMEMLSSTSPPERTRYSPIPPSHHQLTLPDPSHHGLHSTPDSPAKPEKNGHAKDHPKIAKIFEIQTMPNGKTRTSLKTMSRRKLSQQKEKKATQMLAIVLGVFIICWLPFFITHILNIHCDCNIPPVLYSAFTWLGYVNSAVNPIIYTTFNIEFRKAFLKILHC
T1 sequence (P35462 whole entry): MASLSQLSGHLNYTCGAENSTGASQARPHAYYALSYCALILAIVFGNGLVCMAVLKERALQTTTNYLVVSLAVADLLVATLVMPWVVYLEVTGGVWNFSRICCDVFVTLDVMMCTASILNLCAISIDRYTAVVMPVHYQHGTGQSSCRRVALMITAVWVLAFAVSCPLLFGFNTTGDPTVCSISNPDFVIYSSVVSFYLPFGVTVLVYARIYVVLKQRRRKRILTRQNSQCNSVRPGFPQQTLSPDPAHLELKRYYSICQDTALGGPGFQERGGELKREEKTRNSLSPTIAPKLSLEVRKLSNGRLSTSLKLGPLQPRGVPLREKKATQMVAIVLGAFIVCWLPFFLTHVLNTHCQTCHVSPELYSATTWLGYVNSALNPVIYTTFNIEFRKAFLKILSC

Take `Cl.Cl.Fc1ccc(-c2cncc(CNC[C@H]3CCc4ccccc4O3)c2)cc1` [Sarizotan, 1-[(2R)-3,4-dihydro-2H-chromen-2-yl]-N-{[5-(4-fluorophenyl)pyridin-3-yl]methyl}methanamine dihydrochloride]: the results for the Ki in experiment [1], in experiment [4] and in experiment [6] were 3.48 nM, 2.56 nM and 0.0293 nM, respectively. Further, the “binding affinity (in words)” value is “comparatively strong binding affinity” in experiment [1], “comparatively strong binding affinity” in experiment [4] and “particularly strong binding affinity” in experiment [6]. For the same molecule, the EC50 in experiment [2], in experiment [3] and in experiment [5] was > 500 nM each time. In addition, the results for the half-maximal inhibitory concentration (IC50) in experiment [2], in experiment [3] (with 3 μM dopamine) and in experiment [5] (with 3 μM dopamine) were 181 nM, 66.7 nM and 13.3 nM, respectively. In experiment [2], the “agonist activity (in words)” value was “did not exhibit an agonist activity”. For the same molecule, the “antagonist activity (in words)” value was “weak antagonist activity” in experiment [2], “antagonist activity” in experiment [3] and “antagonist activity” in experiment [5]. In addition, the Emax in experiment [2] (read-out: Agonist assay Emax) is 14%; in experiment [2] (read-out: Antagonist assay Emax) it was 65%; in experiment [3] (setting [7]), 5%; in experiment [3] (setting [8]) it was 74%; in experiment [5] (setting [7]), 2%; in experiment [5] (setting [8]), 101%.

With `O=C1c2ccccc2OC=C(Cl)N1CCCCN1CC=C(c2ccccn2)CC1` [SUN N4057, 3-chloro-4,5-dihydro-4-{4-[4-(2-pyridyl)-1,2,3,6-tetrahydropyridin-1-yl]butyl}-1,4-benzoxazepin-5-one.dihydrochloride-dihydrate], the Ki in experiment [1] (Dopamine D3, read-out: Ki) was found to be 42.8 nM; in experiment [4], 162 nM; in experiment [6] it was 0.0249 nM. Also, the maximal response (Emax) came out at 77% in experiment [2] (setting [9]); 13% in experiment [2] (setting [11]); 41% in experiment [3] (setting [7]); 25% in experiment [3] (setting [8]); 27% in experiment [5] (setting [7]); 47% in experiment [5] (setting [8]). Moreover, the EC50 in experiment [2] (setting [10]) was 2.12 nM; in experiment [3], > 500 nM; in experiment [5] it was > 500 nM. In addition, the IC50 in experiment [2] (setting [12]), in experiment [3] (with 3 μM dopamine) and in experiment [5] (with 3 μM dopamine) was > 500 nM in each case. Moreover, in experiment [2], the “agonist activity (in words)” value was “strong agonist activity; also recorded: has an agonist action”. Further, the figures for the “antagonist activity (in words)” value in experiment [2], in experiment [3] and in experiment [5] were “no antagonist activity was exhibited”, “does not have an antagonist action” and “does not have an antagonist action”, respectively. Moreover, the “binding affinity (in words)” value in experiment [6] is given as “particularly strong binding affinity”.

With `Cl.Cl.O=c1[nH]c2cccc(C3CCCN(Cc4cncc(-c5ccc(F)cc5)c4)C3)c2o1` (stereo not drawn) [7-(1-{[5-(4-fluorophenyl)pyridin-3-yl]methyl}piperidin-3-yl)-1,3-benzoxazol-2(3H)-one dihydrochloride], the Ki was 9.07 nM in experiment [1] (Dopamine D3, read-out: Ki); 6.34 nM in experiment [4]; 2.67 nM in experiment [6]. The “binding affinity (in words)” value in experiment [1] and in experiment [4] was “comparatively strong binding affinity” throughout. For the same molecule, the maximal effect (Emax) in experiment [2] (setting [9]) was determined as 69%; in experiment [2] (setting [11]) it was 22%; in experiment [3] (setting [7]) it was 27%; in experiment [3] (setting [8]), 69%; in experiment [5] (setting [7]), 18%; in experiment [5] (setting [8]), 75%. Moreover, the values for the EC50 in experiment [2] (setting [10]), in experiment [3] and in experiment [5] were 1.4 nM, > 500 nM and > 500 nM, respectively. The figures for the half-maximal inhibitory concentration (IC50) in experiment [2] (setting [12]), in experiment [3] (with 3 μM dopamine) and in experiment [5] (with 3 μM dopamine) were > 500 nM, 17.9 nM and 72.9 nM, respectively. In experiment [2], the “agonist activity (in words)” value is on record as “strong agonist activity”. The “antagonist activity (in words)” value in experiment [2] is on record as “no antagonist activity was exhibited”; in experiment [3], “antagonist activity”; in experiment [5] it was “antagonist activity”.

As usually defined, the Ki is the dissociation constant of the complex between target and ligand, obtained from inhibition or displacement. The term EC50 denotes the midpoint of the concentration-response curve. As a reminder, the IC50 is the midpoint of a concentration-inhibition curve. A word on the Emax: it is the maximal effect, on the per cent scale that the assay sets.
